In patent US8450313B2, “2,3-diaryl- or heteroaryl-substituted 1,1,1-trifluoro-2-hydroxypropyl compounds” (Hoffmann-La Roche Inc., priority 2009, dated 2013):

Molecular target: T1, full length human recombinant glucocorticoid receptor (Homo sapiens, UniProt P04150)
T1 construct: It contains some partially purified full length human recombinant glucocorticoid receptor; purchased Panvera/Invitrogen PV4302
T1 sequence (P04150 1-777): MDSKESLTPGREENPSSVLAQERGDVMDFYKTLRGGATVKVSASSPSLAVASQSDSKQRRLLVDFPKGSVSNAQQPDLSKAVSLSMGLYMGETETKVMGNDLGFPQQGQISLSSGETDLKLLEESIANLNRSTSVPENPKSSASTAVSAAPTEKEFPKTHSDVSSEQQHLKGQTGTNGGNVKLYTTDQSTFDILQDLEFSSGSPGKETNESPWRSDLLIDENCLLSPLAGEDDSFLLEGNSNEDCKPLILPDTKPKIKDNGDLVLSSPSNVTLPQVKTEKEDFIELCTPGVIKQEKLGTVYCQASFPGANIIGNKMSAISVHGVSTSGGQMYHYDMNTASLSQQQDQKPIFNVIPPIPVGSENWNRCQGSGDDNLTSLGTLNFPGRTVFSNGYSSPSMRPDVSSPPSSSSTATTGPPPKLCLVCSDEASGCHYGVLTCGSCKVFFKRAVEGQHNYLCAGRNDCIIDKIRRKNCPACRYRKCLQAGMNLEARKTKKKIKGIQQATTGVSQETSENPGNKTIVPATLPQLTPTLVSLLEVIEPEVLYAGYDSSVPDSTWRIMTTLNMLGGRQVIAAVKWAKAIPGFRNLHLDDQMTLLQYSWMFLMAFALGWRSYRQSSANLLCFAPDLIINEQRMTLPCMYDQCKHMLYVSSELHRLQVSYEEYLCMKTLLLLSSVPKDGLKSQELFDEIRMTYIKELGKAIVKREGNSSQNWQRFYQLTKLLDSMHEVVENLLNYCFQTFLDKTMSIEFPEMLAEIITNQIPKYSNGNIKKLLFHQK
Assay: Glucocorticoid Receptor Binding Assay (Glucocorticoid Receptor Competitor Assay far red kit, fluorescence polarization)
Settings: competition with fluorescent GR ligand Fluormone GS Far Red, 3 hours at 22° C., pH 7.4; Ki calculated from IC50 by Cheng-Prusoff
Outline: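 Fluorescence polarization competition with partially purified full-length human recombinant GR, stabilizing peptide and Fluormone GS Far Red tracer in screening buffer pH 7.4; 3 hours at 22° C in the dark, read at 610–660 nm. IC50 from sigmoidal fit; Ki by Cheng-Prusoff.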

Compound | Ki [nM]
C[C@H](c1ccc(Oc2ccc(C(=O)O)c(F)c2)cc1Cl)[C@@](O)(c1ccc2oc(=O)n(C)c2c1)C(F)(F)F (stereo in doubt) [Example 177, 4-{3-Chloro-4-[3,3,3-trifluoro-2-hydroxy-1-methyl-2-(3-methyl-2-oxo-2,3-dihydro-benzooxazol-5-yl)-propyl]-phenoxy}-2-fluoro-benzoic acid] | 1.3
C[C@H](c1ccc(-c2cccc(C(=O)O)c2)cc1Cl)[C@@](O)(c1ccc2c(c1)oc(=O)n2C)C(F)(F)F (stereo in doubt) [Example 179, 3′-Chloro-4′-[3,3,3-trifluoro-2-hydroxy-1-methyl-2-(3-methyl-2-oxo-2,3-dihydro-benzooxazol-6-yl)-propyl]-biphenyl-3-carboxylic acid] | 13.3
COC(=O)c1ccc(Oc2ccc([C@@H](C)[C@@](O)(c3ccc4oc(=O)n(C)c4c3)C(F)(F)F)c(Cl)c2)nc1Cl (stereo in doubt) [Example 182, 2-Chloro-6-{3-chloro-4-[3,3,3-trifluoro-2-hydroxy-1-methyl-2-(3-methyl-2-oxo-2,3-dihydro-benzooxazol-5-yl)-propyl]-phenoxy}-nicotinic acid methyl ester] | 3.3
C[C@H](c1ccc(-c2ccnnc2)cc1Cl)[C@@](O)(c1ccc2oc(=O)n(C)c2c1)C(F)(F)F (stereo in doubt) [Example 195, 5-[2-(2-Chloro-4-pyridazin-4-yl-phenyl)-1-hydroxy-1-trifluoromethyl-propyl]-3-methyl-3H-benzooxazol-2-one] | 0.8
C[C@H](c1ccc(Oc2ncccn2)cc1Cl)[C@@](O)(c1ccc2oc(=O)n(C)c2c1)C(F)(F)F (stereo in doubt) [Example 196, 5-{2-[2-Chloro-4-(pyrimidin-2-yloxy)-phenyl]-1-hydroxy-1-trifluoromethyl-propyl}-3-methyl-3H-benzooxazol-2-one] | 1.6
C[C@H](c1ccc(-c2ccc(C(=O)O)c(F)c2)cc1C(F)(F)F)[C@@](O)(c1ccc2oc(=O)n(C)c2c1)C(F)(F)F (stereo in doubt) [Example 200, 3-Fluoro-4′-[3,3,3-trifluoro-2-hydroxy-1-methyl-2-(3-methyl-2-oxo-2,3-dihydro-benzooxazol-5-yl)-propyl]-3′-trifluoromethyl-biphenyl-4-carboxylic acid] | 4.5
C[C@H](c1ccc(Oc2ccc(C(=O)O)cn2)cc1Cl)[C@@](O)(c1ccc2c(c1)N(C)C(=O)CO2)C(F)(F)F (stereo in doubt) [Example 205, 6-{3-Chloro-4-[3,3,3-trifluoro-2-hydroxy-1-methyl-2-(4-methyl-3-oxo-3,4-dihydro-2H-benzo[1,4]oxazin-6-yl)-propyl]-phenoxy}-nicotinic acid] | 2.5
C[C@H](c1ccc(Oc2ccc(C(=O)O)c(Cl)n2)cc1Cl)[C@@](O)(c1ccc2c(c1)N(C)C(=O)CO2)C(F)(F)F (stereo in doubt) [Example 209, 2-Chloro-6-{3-chloro-4-[3,3,3-trifluoro-2-hydroxy-1-methyl-2-(4-methyl-3-oxo-3,4-dihydro-2H-benzo[1,4]oxazin-6-yl)-propyl]-phenoxy}-nicotinic acid] | 0.8
C[C@H](c1ccc(Oc2cc(Cl)c(C(=O)O)cn2)cc1Cl)[C@@](O)(c1ccc2c(c1)N(C)C(=O)CO2)C(F)(F)F (stereo in doubt) [Example 211, 4-Chloro-6-{3-chloro-4-[3,3,3-trifluoro-2-hydroxy-1-methyl-2-(4-methyl-3-oxo-3,4-dihydro-2H-benzo[1,4]oxazin-6-yl)-propyl]-phenoxy}-nicotinic acid] | 1.2
C[C@H](c1ccc(Oc2ccc(C(=O)O)c(C(F)(F)F)n2)cc1Cl)[C@@](O)(c1ccc2c(c1)N(C)C(=O)CO2)C(F)(F)F (stereo in doubt) [Example 215, 6-{3-Chloro-4-[3,3,3-trifluoro-2-hydroxy-1-methyl-2-(4-methyl-3-oxo-3,4-dihydro-2H-benzo[1,4]oxazin-6-yl)-propyl]-phenoxy}-2-trifluoromethyl-nicotinic acid] | 1.4
C[C@H](c1ccc(Oc2ccc(C(=O)O)c(F)c2)cc1Cl)[C@@](O)(c1ccc2c(c1)N(C)C(=O)CO2)C(F)(F)F [Example 57] | 1.3
C[C@H](c1ccc(Oc2cc(C(F)(F)F)c(C(=O)O)cn2)cc1Cl)[C@@](O)(c1ccc2c(c1)N(C)C(=O)CO2)C(F)(F)F [Example 62] | 2.1
CC(c1ccc(-c2ccc(C(=O)O)c(F)c2)cc1Cl)C(O)(c1ccc2c(c1)n(C)c(=O)n2C)C(F)(F)F (stereo not drawn) [Example 73, 3′-Chloro-4′-[2-(1,3-dimethyl-2-oxo-2,3-dihydro-1H-benzoimidazol-5-yl)-3,3,3-trifluoro-2-hydroxy-1-methyl-propyl]-3-fluoro-biphenyl-4-carboxylic acid] | 7.3
CC(c1ccc(-c2ccc(OCC(=O)O)cc2)cc1Cl)C(O)(c1ccc2c(c1)n(C)c(=O)n2C)C(F)(F)F (stereo not drawn) [Example 75, {3′-Chloro-4′-[2-(1,3-dimethyl-2-oxo-2,3-dihydro-1H-benzoimidazol-5-yl)-3,3,3-trifluoro-2-hydroxy-1-methyl-propyl]-biphenyl-4-yloxy}-acetic acid] | 1.9

Results, then the compound that gave them:

Ki [nM] | Compound
0.4 | COc1ccc([C@@H](C)[C@@](O)(c2ccc3oc(=O)n(C)c3c2)C(F)(F)F)c(Cl)c1 (stereo in doubt) [Example 171, 5-[2-(2-Chloro-4-methoxy-phenyl)-1-hydroxy-1-trifluoromethyl-propyl]-3-methyl-3H-benzooxazol-2-one]
1 | C[C@H](c1ccc(Oc2ncc(C(=O)O)cc2Cl)cc1Cl)[C@@](O)(c1ccc2oc(=O)n(C)c2c1)C(F)(F)F (stereo in doubt) [Example 180, 5-Chloro-6-{3-chloro-4-[3,3,3-trifluoro-2-hydroxy-1-methyl-2-(3-methyl-2-oxo-2,3-dihydro-benzooxazol-5-yl)-propyl]-phenoxy}-nicotinic acid]
0.5 | C[C@H](c1ccc(Oc2ccc(C(=O)O)cn2)cc1Cl)[C@@](O)(c1ccc2oc(=O)n(C)c2c1)C(F)(F)F (stereo in doubt) [Example 181, 6-{3-Chloro-4-[3,3,3-trifluoro-2-hydroxy-1-methyl-2-(3-methyl-2-oxo-2,3-dihydro-benzooxazol-5-yl)-propyl]-phenoxy}-nicotinic acid]
0.8 | COc1ccc(Cl)c([C@@H](C)[C@@](O)(c2ccc3oc(=O)n(C)c3c2)C(F)(F)F)c1 (stereo in doubt) [Example 192, 5-[2-(2-Chloro-5-methoxy-phenyl)-1-hydroxy-1-trifluoromethyl-propyl]-3-methyl-3H-benzooxazol-2-one]
5.8 | C[C@H](c1cc(O)ccc1Cl)[C@@](O)(c1ccc2oc(=O)n(C)c2c1)C(F)(F)F (stereo in doubt) [Example 197, 5-[2-(2-Chloro-5-hydroxy-phenyl)-1-hydroxy-1-trifluoromethyl-propyl]-3-methyl-3H-benzooxazol-2-one]
370 | C[C@H](c1ccc(OC(C)(C)C(=O)O)cc1Cl)[C@@](O)(c1ccc2c(c1)N(C)C(=O)CO2)C(F)(F)F (stereo in doubt) [Example 207, 2-{3-Chloro-4-[3,3,3-trifluoro-2-hydroxy-1-methyl-2-(4-methyl-3-oxo-3,4-dihydro-2H-benzo[1,4]oxazin-6-yl)-propyl]-phenoxy}-2-methyl-propionic acid]
3.9 | CCOC(=O)C(C)(C)Oc1ccc([C@@H](C)[C@@](O)(c2ccc3oc(=O)n(C)c3c2)C(F)(F)F)c(Cl)c1 (stereo in doubt) [Example 229, 2-{3-Chloro-4-[3,3,3-trifluoro-2-hydroxy-1-methyl-2-(3-methyl-2-oxo-2,3-dihydro-benzooxazol-5-yl)-propyl]-phenoxy}-2-methyl-propionic acid ethyl ester]
35.3 | C[C@H](c1ccc(OC(C)(C)C(=O)O)cc1Cl)[C@@](O)(c1ccc2oc(=O)n(C)c2c1)C(F)(F)F (stereo in doubt) [Example 230, 2-{3-Chloro-4-[3,3,3-trifluoro-2-hydroxy-1-methyl-2-(3-methyl-2-oxo-2,3-dihydro-benzooxazol-5-yl)-propyl]-phenoxy}-2-methyl-propionic acid]
6.9 | C[C@H](c1ccc(C(=O)NCC(=O)OC(C)(C)C)cc1Cl)[C@@](O)(c1ccc2oc(=O)n(C)c2c1)C(F)(F)F (stereo in doubt) [Example 231, {3-Chloro-4-[3,3,3-trifluoro-2-hydroxy-1-methyl-2-(3-methyl-2-oxo-2,3-dihydrobenzooxazol-5-yl)-propyl]-benzoylamino}-acetic acid tert-butyl ester]
92.4 | C[C@H](c1ccc(C(=O)NCC(=O)O)cc1Cl)[C@@](O)(c1ccc2oc(=O)n(C)c2c1)C(F)(F)F (stereo in doubt) [Example 232, {3-Chloro-4-[3,3,3-trifluoro-2-hydroxy-1-methyl-2-(3-methyl-2-oxo-2,3-dihydrobenzooxazol-5-yl)-propyl]-benzoylamino}-acetic acid]
